# From patent US8097615B2, “Neurofibrillary labels” (Wista Laboratories Ltd., priority 2001, dated 2012)
# “Also recorded” adds a separate entry of the source. Where two headings read alike, the source gives them in different places.
# Tests used:
# [1] = system: tangle fragments; test: Competitive binding assay: displacement of primulin fluorescence from tangle fragments (ifI); design: species or system human; conditions: for competition with / displacement of other ligands at tangles: fluorescence end point
# Procedure: IfI material was homogenised in a 0.2 ml glass homogeniser in PBS. To the suspension, test compounds were added to final concentrations ranging from 0.1% to 0.00001%. […] The suspensions were transferred to a glass slide, and examined by fluorescence microscopy across a range of fluorescence filter blocks, covering excitation and emission wavelengths between 380 nm and 570 nm. The end point sought in these observations was displacement of typical primulin fluorescence from tangle fragments.
# [2] = system: amyloid; test: Labelling / staining of amyloid deposits; type: binding
# [3] = molecular target: T1, tau-tau binding (Homo sapiens, UniProt P10636); test: Solid-phase tau-tau binding assay (dGA solid phase, dGAE liquid phase), tau Preparation 2; type: biochemical; conditions: for tau-tau binding relative to that seen in the absence of DMMB: tau typically 1 μM
# T1 construct: a truncated tau protein corresponding to the core fragment and terminating at Ala390-dGA; dGAE which terminates at Glu-391; made in house; host or cells: E. coli BL21 (DE3), pRK172; DE52 flow-through, P11 phosphocellulose, PEG concentration, no heat step (Preparation 2)
# Procedure: Preparation 2 differs from Preparation 1 above in the following respects: (1) The concentration of cells at the sonication stage is increased by 5-fold. (2) A batchwise adsorption of non-tau proteins to DE52 is included. (3) The proteins are not subjected to heat treatment. (4) The final step involves concentration using polyethylene glycol.
# Escherichia coli is grown in 2×TY medium (Oxoid) supplemented with ampicillin (50 micrograms per ml) to late-logarithmic phase. Cells from 5 liters of culture are harvested by centrifugation and the cell pellets frozen rapidly over liquid nitrogen. The pellets are taken up with 50 mM PIPES (pH 6.8) containing 1 mM EDTA, 1 mM dithiothreitol and 1 mM phenylmethylsulphonylfluoride (PMSF) and bacteria lysed by sonication (2×3 min) at 4 C. The mixture is centrifuged at 10,000 rpm for 20 min. The supernatant is rotated with 1 gram of Whatman DE52 for 3 hr at 4 C. The mixture is separated on a column and the flow-through material that fails to bind to DE52 is incubated for 3 hr at 4 C, with rotation, with 0.4 g of Whatman P11 (freshly regenerated according to manufacturer's recommendations). The column is washed with column buffer (50 mM PIPES, pH 6.8 containing 1 mM EGTA, 5 mM EDTA, 0.2 mM MgCl2, 5 mM β-mercaptoethanol and 1 mM PMSF). Tau protein is eluted stepwise with a 0.1 to 1 M gradient of KCl in column buffer. Fractions containing tau (determined by immunoassay) are pooled and dialysed against 80 mM PIPES (pH6.8) containing 1 mM EGTA, 1 mM MgCl2 and 5 mM β-mercatoethanol, using dialysis tubing with a molecular weight cut-off of 1,000. The dialysate is concentrated by applying polyethylene glycol 8000 to the outside of the sac for 2-3 hr. The final concentration of tau ranged from 3 to 10 mg per ml.
# When the proteins dGA and dGAE were prepared as indicated above (“Preparation 2”), the properties of the tau-tau binding assay were altered relative to the properties obtained using the preparative method described in WO96/30766 (“Preparation 1”).
# The assay is performed using 96 well PVC plates (Falcon Cat. No. 353912 are used), and the following steps:
# 1. 50 μl dGA (˜10 μg/ml) in carbonate buffer, incubate 1 h at 37° C.
# (Carbonate buffer: 50 mM carbonate bicarbonate, pH 9.6 (Na2CO3 1.59 g/l, NaHCO3 2.93 g/l))
# 2. Wash plate in 0.05% Tween-20.
# 3. 200 μl PBS+2% Marvel, incubate 1 h at 37° C.
# 4. Rinse plate 2× in deionised water, then wash in 0.05% Tween-20.
# 5. 50 μl dGAE (˜10 μg/ml) plus drug in PBS+1% fish skin gelatin+0.05% Tween-20, incubate 1 h at 37° C.
# 6. Wash plate in 0.05% Tween-20.
# 7. 50 μl antibody 423 (1:10 dilution in PBS+2% Marvel), incubate 1 h at 37° C.
# 8. Rinse plate 2× in deionised water, then wash in 0.05% Tween-20.
# 9. 50 μl HRP-anti-mouse (1:1000 dilution in PBS+0.05% Tween-20), incubate 1 h at 37° C.
# 10. Wash plate in 0.05% Tween-20, then rinse 1× with deionised water.
# 11. 50 μl substrate solution, read immediately initial rate over 2 min in plate reader at OD650.
# (Substrate solution: 50 mM sodium acetate, pH 5.0+TMB (1 ml/100 ml of a 10 mg/ml solution in DMSO)+H2O2 (10 μl/100 ml)).
# [4] = system: isolated PHFs; test: Ligand electronmicroscopy of Pronase-digested PHFs (gold-conjugated anti-biotin antibody); type: binding
# Procedure: (§1) In ifI suspensions such as this, tangles can be seen by blue fluorescence which is […] from that associated with binding of contaminants in the preparation. […] (a) Chemical labelling with the biotinylated benzothiazole analogue shown as 4b in FIG. 4. PHFs were deposited on a carbon-coated grid after Pronase digestion, and incubated briefly with compound 4b, and then incubated with an anti-biotin antibody preparation that had been conjugated with colloidal gold. […] (b) mAb 423 immunolabelling of isolated PHFs after Pronase digestion., followed by incubation with a gold-conjugated goat anti-mouse second antibody as described in Novak et al. 1993 (Novak M, Kabat J, Wischik C M (1993) “Molecular characterisation of the minimal protease-resistant tau unit of the Alzheimers' disease paired helical filament”, EMBO J. 12: 365-370). As shown in this paper, mAb 423 labels PHFs derived from intracellular tangles (which preserve N-terminal tau immunoreactivity in the fuzzy outer coat) poorly, but Pronase digested PHFs strongly.
# PHFs derived from an ifI fraction were deposited on a carbon coated grid after pronase digestion, and incubated briefly with a preparation of biotinylated Primulin, and then incubated with an anti-biotin antibody that has been conjugated with colloidal gold by the method of Slot and Gueze (1981).
# [5] = system: PHFs; test: Spectrofluorometry of primulin in solution and bound to PHFs (ifII); type: binding; conditions: PHFs with bound primulin treated with the substance
# Procedure: These measurements were carried out in a Perkin-Elmer spectrofluorimeter (model MPF-3). A concentration of ligand of 0.00001% was routinely used for all measurements. […] All measurements were therefore carried out at a standard excitation wavelength of 370 nm, and a constant slit width of 3 mm.
# Further investigations into the relationship between aggregation-dependent tau ligands and tau aggregation inhibitors were carried out using primulin. Primulin in solution has a fluorescence peak at 520 nm. This shifts to 470 nm when primulin is bound within a pure preparation of PHFs (FIG. 6). […] Therefore, binding by such compounds is dependent on the polymerised state of tau found in the PHF, but is not present in free tau.
# Compounds have been identified which disrupt the structure of the PHF and reverse the proteolytic stability of the PHF core (see WO 96/30766). Examples of such compounds are shown in accompanying FIG. 8. The present inventors have now identified that these compounds bind to tau at a specific binding site within the high affinity tau-tau binding domain.
# [6] = system: neurofibrillary tangles; test: Fluorescence labelling of tangles (sections, ifI tangle suspensions); type: binding, human
# Procedure: as §1
# Serial 16 μm sections are cut from the hippocampus of a case dying with clinically and neuropathologically confirmed AD. […]
# A Leitz fluorescence microscope fitted with a photo-multiplyer tube (Model MPV-2) was used to quantitate fluorescence emission. […]
# T1 sequence (P10636 614-708 limits assumed): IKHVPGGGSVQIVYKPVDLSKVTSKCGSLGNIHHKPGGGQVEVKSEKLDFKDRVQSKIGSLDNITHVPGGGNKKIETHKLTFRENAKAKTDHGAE
compound,measurement,setting,value
2-(4-amino phenyl)-6-methyl-1-sulphonate benzothiazole [compound 2],displaced from tangles by primulin (SB-ligand),[1],displaced from NFTs; also recorded: displace this from tangles
same,displaced from amyloid by primulin,[2],not amyloid
same,labelling / staining of amyloid,[2],bind preferentially to amyloid
"Cc1cc(=[N+](C)C)cc2sc3cc(N(C)C)cc(C)c3nc1-2.[Cl-] [DMMB, dimethyl methylene blue]",inhibitory potency in Preparation 2 compared with Preparation 1,[3],higher inhibitory potency in Preparation 2 than in Preparation 1
same,tau-tau binding relative to that seen in the absence of DMMB,[3]; DMMB 5 μM,23%
same,tau-tau binding relative to that seen in the absence of DMMB,[3]; DMMB 15 μM,17%
O=C(O)CCCC[C@@H]1SC[C@@H]2NC(=O)N[C@@H]21 [biotin],immunogold anti-biotin labelling of isolated PHFs after pre-incubation,[4],no labelling
CC1=CC(=O)OC1=O [citraconic anhydride],effect on PHF-bound primulin fluorescence peak,[5],disrupting the orderly structure of PHFs and releasing free tau and free unbound primulin; also recorded: abolish the 470 nm fluorescence peak
Cc1ccc2sc(-c3ccc(N=Nc4ccccc4O)cc3)nc2c1S(=O)(=O)[O-].[Na+] [compound 4a],activity as ligand,[1],active ligands
same,competition with / displacement of other ligands at tangles,[1],compete out thiazin red and primulin fluorescence at equivalent concentrations
Cc1ccc2sc(-c3ccc(N=Nc4cc(CCC(=O)ON5C(=O)CCC5=O)ccc4O)cc3)nc2c1S(=O)(=O)[O-].[Na+] [compound 4b],competition with / displacement of other ligands at tangles,[1],compete primulin and thiazin red
same,immunogold anti-biotin labelling of isolated PHFs after pre-incubation,[4],binds to the proteolytically stable PHF structure; also recorded: label isolated PHFs
Cc1ccc2sc(-c3ccc(N=NNc4ccc(-c5nc6c(S(=O)(=O)[O-])c(C)ccc6s5)cc4)cc3)nc2c1S(=O)(=O)[O-].[Na+].[Na+] [thiazin yellow],activity as ligand,[1],inactive as a ligand; also recorded: does not serve as an effective ligand
same,competition with / displacement of other ligands at tangles,[1],did not
Cc1ccc2c(c1)sc(-c1ccc(N(C)C)cc1)[n+]2C.[Cl-] [thioflavin-T],labelling of tangles,[6],barely visible tangle; also recorded: much less effective
same,displaced from tangles by primulin (SB-ligand),[1],displaced by yellow tangle fluorescence produced by primulin; also recorded: can be displaced from tangles by primulin
same,displaced from tangles by primulin (SB-ligand),[1]; listed as 1b,displaced from NFTs
same,displaced from tangles by primulin (SB-ligand),[1]; listed as compound 1b,displace compound 1b at tangles
same,labelling / staining of amyloid,[2],labelled amyloid preferentially; also recorded: strongly stain amyloid deposits
same,labelling / staining of amyloid,[2]; listed as 1b,bind preferentially to amyloid
alcian blue,effect on PHF-bound primulin fluorescence peak,[5],no disturbance of the characteristic bound primulin fluorescence peak; also recorded: retention of the fluorescence peak of primulin at 470 nm
